Results taken from ChEMBL document CHEMBL1156354, “Anti-AIDS agents. 48.(1) Anti-HIV activity of moronic acid derivatives and the new melliferone-related triterpenoid isolated from Brazilian propolis” (J Nat Prod, 2001).
In brackets after ≈: the same amount, converted by molar mass.

Experiments:
H9 = assay: Cytotoxicity against human H9 cells; format: cell-based
[1] = system: Human immunodeficiency virus 1; assay: Antiviral activity against HIV1 3B infected in human H9 cells assessed as inhibition of viral p24 antigen levels after 4 days by ELISA; format: functional, organism-based
[2] = Therapeutic index, ratio of IC50 for human H9 cells to EC50 of HIV1 3B; format: cell-based; details: for selectivity ratio: H9 cells, HIV-1 3B, read-out: Ratio IC50/EC50; for Ratio IC50/EC50: h9
[3] = Human immunodeficiency virus 1, 3B, H9, 96 h, read-out: EC50

| SMILES | IC50 (H9) [µg/mL] | EC50 [1, 3] [µg/mL] | selectivity ratio [2] | EC50 ([1]; h9) | Ratio IC50/EC50 [2] |
| --- | --- | --- | --- | --- | --- |
| CC1(C)C=C2[C@H]3CC[C@@H]4[C@@]5(C)CCC(=O)C(C)(C)[C@@H]5CC[C@@]4(C)[C@]3(C)CC[C@@]2(C(=O)O)CC1 [MORONIC ACID] | 18.6 (≈ 40.9 µM) | < 0.1 | > 186 |  |  |
| CC1(C)C=C2[C@H]3CC[C@@H]4[C@@]5(C)CC[C@H](OC(=O)CC(C)(C)C(=O)O)C(C)(C)[C@@H]5CC[C@@]4(C)[C@]3(C)CC[C@@]2(C(=O)O)CC1 | 18.1 (≈ 30.9 µM) | 1 (≈ 1.71 µM) | 18 |  |  |
| C=C(COC(C)=O)[C@H]1Cc2cc(C(C)=O)ccc2O1 | 2.07 (≈ 7.95 µM) |  |  | Not Active | Not Active |
| CC1(C)C=C2[C@H]3CC[C@@H]4[C@@]5(C)CC[C@H](O)C(C)(C)[C@@H]5CC[C@@]4(C)[C@]3(C)CC[C@@]2(C(=O)O)CC1 [MOROLIC ACID] | 22.1 (≈ 48.4 µM) | 2.7 (≈ 5.91 µM) | 8.17 |  |  |
| C/C(=C/CC[C@@H](C)[C@H]1CC[C@@]2(C)C3=C(CC[C@]12C)[C@@]1(C)CCC(=O)C(C)(C)[C@@H]1CC3)C(=O)O [ANWUWEIZONIC ACID] | 2.14 (≈ 4.71 µM) |  |  | Not Active | Not Active |
| C=C(C)[C@@H]1CC[C@]2(C(=O)O)CC[C@]3(C)[C@H](CC[C@@H]4[C@@]5(C)CCC(=O)C(C)(C)[C@@H]5CC[C@]43C)[C@@H]12 [BETUNOLIC ACID] | 1.8 (≈ 3.96 µM) | 0.22 (≈ 0.484 µM) | 8 |  |  |
| Cc1cn([C@H]2C[C@H](N=[N+]=[N-])[C@@H](CO)O2)c(=O)[nH]c1=O [ZIDOVUDINE] |  | 0.00289 (≈ 0.0108 µM) |  |  |  |
| CCC(=O)c1ccc(O)c(OC)c1 | 18.8 (≈ 104 µM) |  |  | Not Active | Not Active |
| COc1cc(C=O)ccc1O [VANILLIN] | > 100 |  |  | Not Active | Not Active |
| CC1(C)CC[C@@]23CC[C@]4(C)[C@@](C=C[C@@H]5[C@@]6(C)CCC(=O)C(C)(C)[C@@H]6CC[C@]54C)(OC2=O)[C@@H]3C1 [MELLIFERONE] | 0.205 (≈ 0.453 µM) |  |  | Not Active | Not Active |
| COc1ccc(/C=C/C=O)cc1OC [3,4-DIMETHOXY CINNAMALDEHYDE] | 18.9 (≈ 98.3 µM) | 2.19 (≈ 11.4 µM) | 8.62 |  |  |
